Source: the NIST ThermoML archive (doi:10.1016/j.jct.2005.07.019)
Numbers after ± are expanded uncertainties.

Experiment: mn = molality of the nth substance listed, in mol/kg
Conditions: 350 kPa, Liquid, Extra sensitive DSC

NC(CO)C(=O)O (centres undefined) [(.+-.)-serine] + O
apparent molar heat capacity [J/K/mol]
Conditions | m1 = 0.015 | m1 = 0.0308 | m1 = 0.0509 | m1 = 0.0807 | m1 = 0.1251 | m1 = 0.2505
278.15 K | 50 ± 57 | 53.4 ± 28 | 56.4 ± 17 | 56.6 ± 11 | 57.8 ± 7.3 | 68 ± 3.8
283.15 K | 71 ± 57 | 74.1 ± 28 | 76.7 ± 17 | 76.7 ± 11 | 77.7 ± 7.2 | 86.3 ± 3.9
288.15 K | 87 ± 57 | 90.3 ± 28 | 92.6 ± 17 | 92.6 ± 11 | 93.2 ± 7.1 | 101 ± 3.9
293.15 K | 101 ± 56 | 103.7 ± 28 | 105.7 ± 17 | 105.8 ± 11 | 106.1 ± 7.1 | 113.1 ± 3.8
298.15 K | 112 ± 56 | 114.5 ± 28 | 116.5 ± 17 | 116.5 ± 11 | 116.7 ± 7 | 123 ± 3.8
303.15 K | 121 ± 56 | 123.9 ± 27 | 125.8 ± 17 | 125.7 ± 11 | 125.7 ± 7 | 131.4 ± 3.8
308.15 K | 130 ± 55 | 132.2 ± 27 | 133.9 ± 17 | 133.6 ± 11 | 133.4 ± 7.1 | 138.6 ± 3.7
313.15 K | 137 ± 55 | 139.3 ± 27 | 140.7 ± 17 | 140.4 ± 11 | 140.2 ± 7 | 144.9 ± 3.7
318.15 K | 143 ± 55 | 145.2 ± 27 | 146.5 ± 16 | 146.2 ± 10 | 145.8 ± 7 | 150.2 ± 3.7
323.15 K | 149 ± 55 | 150.3 ± 27 | 151.6 ± 16 | 151.3 ± 10 | 150.9 ± 6.9 | 154.9 ± 3.7
328.15 K | 154 ± 55 | 155 ± 27 | 156.2 ± 16 | 155.8 ± 10 | 155.3 ± 6.9 | 158.9 ± 3.7
333.15 K | 158 ± 54 | 159.4 ± 27 | 160.4 ± 16 | 159.9 ± 10 | 159.3 ± 6.9 | 162.6 ± 3.8
338.15 K | 162 ± 54 | 163.3 ± 27 | 164.2 ± 16 | 163.6 ± 10 | 162.9 ± 6.9 | 165.92 ± 3.7
343.15 K | 166 ± 54 | 166.3 ± 26 | 167.2 ± 16 | 166.6 ± 10 | 165.9 ± 6.8 | 168.74 ± 3.7
348.15 K | 168 ± 54 | 169 ± 26 | 170.1 ± 16 | 169.5 ± 10 | 168.8 ± 6.8 | 171.27 ± 3.7
353.15 K | 170 ± 53 | 171.6 ± 26 | 172.5 ± 16 | 172.1 ± 10 | 171.2 ± 6.8 | 173.56 ± 3.7
358.15 K | 172 ± 53 | 173.7 ± 26 | 174.6 ± 16 | 174 ± 10 | 173.1 ± 6.7 | 175.45 ± 3.7
363.15 K | 174 ± 53 | 175.7 ± 26 | 176.6 ± 16 | 176.2 ± 10 | 175.3 ± 6.7 | 177.16 ± 3.7
368.15 K | 175 ± 53 | 177.9 ± 26 | 178.6 ± 16 | 178.4 ± 10 | 177 ± 6.7 | 178.66 ± 3.7
373.15 K | 177 ± 53 | 179.9 ± 26 | 180.5 ± 16 | 179.7 ± 10 | 178.2 ± 6.7 | 179.8 ± 3.7
378.15 K | 177 ± 52 | 180.9 ± 26 | 181.3 ± 16 | 180.7 ± 10 | 179.3 ± 6.7 | 180.67 ± 3.6
383.15 K | 177 ± 52 | 181.7 ± 26 | 182.2 ± 16 | 181.5 ± 10 | 180.2 ± 6.7 | 181.46 ± 3.6
388.15 K | 175 ± 52 | 182.6 ± 26 | 183 ± 16 | 182.2 ± 10 | 180.9 ± 6.7 | 181.91 ± 3.6
393.15 K | 173 ± 52 | 183.3 ± 26 | 183.3 ± 16 | 182.8 ± 10 | 181.6 ± 6.7 | 182.2 ± 3.6
